Results: publication PMC4032265 (PLoS ONE, 2014)
Like-named read-outs stand apart in the source and are kept apart here.

Key:
[1] = molecular target: 5HT5A serotonergic receptor (Homo sapiens, UniProt P47898); assay: PDSP radioligand binding, 5HT5A; settings: for inhibition at 10 µM: read-out: % inhibition at 10 µM
β1 adrenergic receptor = β1 adrenergic receptor (Homo sapiens, UniProt P08588); assay: PDSP radioligand binding, β1; settings: read-out: % inhibition at 10 µM
[2] = molecular target: 5HT2B serotonergic receptor (Homo sapiens, UniProt P41595); assay: PDSP radioligand binding, 5HT2B; settings: for Ki: full concentration-response curves, n = 3-6 unless noted; for inhibition at 10 µM: read-out: % inhibition at 10 µM
5HT2B serotonergic receptor, sequence (P41595 whole entry): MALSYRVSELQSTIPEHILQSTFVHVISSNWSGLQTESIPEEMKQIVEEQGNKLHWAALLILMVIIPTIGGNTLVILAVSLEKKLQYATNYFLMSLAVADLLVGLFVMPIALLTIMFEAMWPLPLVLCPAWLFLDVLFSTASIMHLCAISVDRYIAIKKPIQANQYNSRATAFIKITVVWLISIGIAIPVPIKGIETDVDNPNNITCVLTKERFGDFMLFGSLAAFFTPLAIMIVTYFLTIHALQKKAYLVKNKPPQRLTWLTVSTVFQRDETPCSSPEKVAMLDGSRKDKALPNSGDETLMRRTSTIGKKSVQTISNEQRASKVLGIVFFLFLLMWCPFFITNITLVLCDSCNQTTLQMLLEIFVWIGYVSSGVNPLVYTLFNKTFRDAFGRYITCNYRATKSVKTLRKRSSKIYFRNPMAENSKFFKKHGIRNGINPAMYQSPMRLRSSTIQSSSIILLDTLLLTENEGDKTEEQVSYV

α2C adrenergic receptor = molecular target: T1, α2C adrenergic receptor (Homo sapiens, UniProt P18825); assay: PDSP radioligand binding, α2C; settings: for Ki: full concentration-response curves, n = 3-6 unless noted; for inhibition at 10 µM: read-out: % inhibition at 10 µM
T1 sequence (P18825 1-462): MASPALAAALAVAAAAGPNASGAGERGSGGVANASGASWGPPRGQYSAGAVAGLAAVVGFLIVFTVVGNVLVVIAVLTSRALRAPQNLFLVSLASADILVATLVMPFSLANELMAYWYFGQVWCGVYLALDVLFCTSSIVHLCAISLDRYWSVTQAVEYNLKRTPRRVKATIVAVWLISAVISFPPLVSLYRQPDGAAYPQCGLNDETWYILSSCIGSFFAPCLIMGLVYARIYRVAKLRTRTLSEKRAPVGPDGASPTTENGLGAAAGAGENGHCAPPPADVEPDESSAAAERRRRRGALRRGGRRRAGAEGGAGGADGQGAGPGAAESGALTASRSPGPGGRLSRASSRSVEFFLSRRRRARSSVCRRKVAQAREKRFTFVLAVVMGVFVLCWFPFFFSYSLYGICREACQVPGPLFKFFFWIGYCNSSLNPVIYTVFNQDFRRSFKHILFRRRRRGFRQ

[3] = molecular target: peripheral benzodiazepine receptor (PBR) (Rattus norvegicus, UniProt P16257); assay: PDSP radioligand binding, PBR; settings: for inhibition at 10 µM: read-out: % inhibition at 10 µM; for Ki: full curves, n = 2
GABAA receptor = assay: PDSP radioligand binding, GABAA; settings: single concentration 10 µM
[4] = molecular target: 5HT7 serotonergic receptor (Homo sapiens, UniProt P34969); assay: PDSP radioligand binding, 5HT7; settings: for inhibition at 10 µM: read-out: % inhibition at 10 µM; for Ki: full curve, n = 1
5HT7 serotonergic receptor, sequence (P34969 whole entry): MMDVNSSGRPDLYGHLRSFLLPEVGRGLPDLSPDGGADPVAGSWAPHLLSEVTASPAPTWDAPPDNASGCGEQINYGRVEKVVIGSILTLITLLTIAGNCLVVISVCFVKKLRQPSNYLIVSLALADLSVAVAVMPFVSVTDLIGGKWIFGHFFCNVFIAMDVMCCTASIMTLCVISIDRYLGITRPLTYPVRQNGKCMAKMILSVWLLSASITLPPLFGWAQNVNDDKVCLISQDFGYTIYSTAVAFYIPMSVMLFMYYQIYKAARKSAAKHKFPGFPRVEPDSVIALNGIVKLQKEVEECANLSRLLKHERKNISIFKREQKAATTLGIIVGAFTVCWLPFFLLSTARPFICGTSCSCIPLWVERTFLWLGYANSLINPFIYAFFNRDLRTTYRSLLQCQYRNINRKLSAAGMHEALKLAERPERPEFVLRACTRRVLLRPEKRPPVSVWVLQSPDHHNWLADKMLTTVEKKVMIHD

α1D adrenergic receptor = molecular target: T2, α1D adrenergic receptor (Homo sapiens, UniProt P25100); assay: PDSP radioligand binding, α1D; settings: read-out: % inhibition at 10 µM
T2 sequence (P25100 1-572): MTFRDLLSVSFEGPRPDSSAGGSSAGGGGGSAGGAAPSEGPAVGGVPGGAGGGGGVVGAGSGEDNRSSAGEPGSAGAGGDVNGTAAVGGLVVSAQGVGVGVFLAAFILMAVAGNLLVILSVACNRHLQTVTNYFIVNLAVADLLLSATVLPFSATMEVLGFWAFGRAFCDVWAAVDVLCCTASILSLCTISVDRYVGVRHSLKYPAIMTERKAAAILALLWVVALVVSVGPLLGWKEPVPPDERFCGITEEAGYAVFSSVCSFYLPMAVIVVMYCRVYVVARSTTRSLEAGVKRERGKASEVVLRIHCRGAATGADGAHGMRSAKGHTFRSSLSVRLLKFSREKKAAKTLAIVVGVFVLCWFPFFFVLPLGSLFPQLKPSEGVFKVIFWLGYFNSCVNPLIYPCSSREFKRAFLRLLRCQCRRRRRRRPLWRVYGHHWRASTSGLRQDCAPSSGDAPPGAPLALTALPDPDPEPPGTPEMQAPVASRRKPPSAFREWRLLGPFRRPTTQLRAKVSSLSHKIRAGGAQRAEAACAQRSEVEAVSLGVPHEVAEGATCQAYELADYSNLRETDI

[5] = molecular target: T3, M1 muscarinic acetylcholine receptor (Homo sapiens, UniProt P11229); assay: PDSP radioligand binding, M1; settings: read-out: % inhibition at 10 µM
T3 sequence (P11229 1-460): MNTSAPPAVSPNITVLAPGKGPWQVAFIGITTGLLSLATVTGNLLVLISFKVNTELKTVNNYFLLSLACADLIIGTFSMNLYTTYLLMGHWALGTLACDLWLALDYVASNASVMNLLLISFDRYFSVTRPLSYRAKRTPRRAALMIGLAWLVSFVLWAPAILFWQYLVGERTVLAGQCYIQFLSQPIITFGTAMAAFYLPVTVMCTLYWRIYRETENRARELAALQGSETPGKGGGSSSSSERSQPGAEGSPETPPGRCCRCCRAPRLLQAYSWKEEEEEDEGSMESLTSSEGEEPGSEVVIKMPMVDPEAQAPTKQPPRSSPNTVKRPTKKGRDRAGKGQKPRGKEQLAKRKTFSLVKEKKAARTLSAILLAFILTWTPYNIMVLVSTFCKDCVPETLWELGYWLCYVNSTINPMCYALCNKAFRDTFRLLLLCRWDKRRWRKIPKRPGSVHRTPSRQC

[6] = molecular target: 5HT2A serotonergic receptor (Homo sapiens, UniProt P28223); assay: PDSP radioligand binding, 5HT2A; settings: read-out: % inhibition at 10 µM
5HT2A serotonergic receptor, sequence (P28223 whole entry): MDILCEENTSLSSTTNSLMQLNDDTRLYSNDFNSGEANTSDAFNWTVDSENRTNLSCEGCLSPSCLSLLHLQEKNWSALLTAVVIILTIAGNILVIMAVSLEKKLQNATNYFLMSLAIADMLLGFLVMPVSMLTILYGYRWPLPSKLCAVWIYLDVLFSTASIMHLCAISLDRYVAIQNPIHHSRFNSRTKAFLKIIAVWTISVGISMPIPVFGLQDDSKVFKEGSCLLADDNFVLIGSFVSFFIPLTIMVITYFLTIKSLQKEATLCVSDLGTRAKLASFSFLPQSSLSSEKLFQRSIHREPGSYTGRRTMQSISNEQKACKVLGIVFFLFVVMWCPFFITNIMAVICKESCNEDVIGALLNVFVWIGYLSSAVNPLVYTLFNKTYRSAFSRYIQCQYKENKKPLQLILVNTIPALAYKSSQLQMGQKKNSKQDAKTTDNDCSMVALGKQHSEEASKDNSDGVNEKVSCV

[7] = molecular target: 5HT1E serotonergic receptor (Homo sapiens, UniProt P28566); assay: PDSP radioligand binding, 5HT1E; settings: read-out: % inhibition at 10 µM
5HT1E serotonergic receptor, sequence (P28566 whole entry): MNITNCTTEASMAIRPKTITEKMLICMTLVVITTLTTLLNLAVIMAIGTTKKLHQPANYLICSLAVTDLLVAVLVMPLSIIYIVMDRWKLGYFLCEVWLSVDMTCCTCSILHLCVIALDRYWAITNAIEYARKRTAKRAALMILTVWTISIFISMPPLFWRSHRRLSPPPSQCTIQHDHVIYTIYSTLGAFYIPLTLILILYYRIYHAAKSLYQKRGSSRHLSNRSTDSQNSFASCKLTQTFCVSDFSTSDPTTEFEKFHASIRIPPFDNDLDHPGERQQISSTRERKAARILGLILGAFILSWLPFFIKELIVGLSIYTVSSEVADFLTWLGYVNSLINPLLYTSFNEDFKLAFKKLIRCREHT

α1A adrenergic receptor = molecular target: T4, α1A adrenergic receptor (Homo sapiens, UniProt P35348); assay: PDSP radioligand binding, α1A; settings: read-out: % inhibition at 10 µM
T4 sequence (P35348 1-466): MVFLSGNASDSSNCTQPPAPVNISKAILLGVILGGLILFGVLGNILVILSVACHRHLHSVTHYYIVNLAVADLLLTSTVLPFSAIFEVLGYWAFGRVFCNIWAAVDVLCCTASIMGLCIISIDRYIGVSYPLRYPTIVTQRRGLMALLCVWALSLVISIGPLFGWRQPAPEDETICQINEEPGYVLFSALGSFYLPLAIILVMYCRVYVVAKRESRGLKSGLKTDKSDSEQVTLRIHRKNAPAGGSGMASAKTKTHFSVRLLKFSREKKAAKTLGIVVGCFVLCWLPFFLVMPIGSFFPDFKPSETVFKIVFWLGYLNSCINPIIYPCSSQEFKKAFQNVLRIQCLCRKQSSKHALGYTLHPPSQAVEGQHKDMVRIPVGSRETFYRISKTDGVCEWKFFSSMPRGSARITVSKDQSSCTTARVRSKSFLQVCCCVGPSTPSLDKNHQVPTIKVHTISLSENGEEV

δ opioid receptor = δ opioid receptor (Homo sapiens, UniProt P41143); assay: PDSP radioligand binding, δ opioid; settings: for Ki: full concentration-response curves, n = 3-6 unless noted; for inhibition at 10 µM: read-out: % inhibition at 10 µM
δ opioid receptor, sequence (P41143 whole entry): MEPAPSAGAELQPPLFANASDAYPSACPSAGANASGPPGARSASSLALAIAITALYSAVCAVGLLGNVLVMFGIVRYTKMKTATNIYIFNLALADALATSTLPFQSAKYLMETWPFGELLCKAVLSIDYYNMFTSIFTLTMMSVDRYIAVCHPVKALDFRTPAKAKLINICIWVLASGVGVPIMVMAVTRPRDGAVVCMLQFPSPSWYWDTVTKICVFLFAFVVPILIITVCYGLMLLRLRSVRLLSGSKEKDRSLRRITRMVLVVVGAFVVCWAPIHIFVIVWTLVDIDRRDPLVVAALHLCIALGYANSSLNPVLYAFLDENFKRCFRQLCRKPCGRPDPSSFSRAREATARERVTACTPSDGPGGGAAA

β1 adrenergic receptor, sequence (P08588 whole entry, species assumed): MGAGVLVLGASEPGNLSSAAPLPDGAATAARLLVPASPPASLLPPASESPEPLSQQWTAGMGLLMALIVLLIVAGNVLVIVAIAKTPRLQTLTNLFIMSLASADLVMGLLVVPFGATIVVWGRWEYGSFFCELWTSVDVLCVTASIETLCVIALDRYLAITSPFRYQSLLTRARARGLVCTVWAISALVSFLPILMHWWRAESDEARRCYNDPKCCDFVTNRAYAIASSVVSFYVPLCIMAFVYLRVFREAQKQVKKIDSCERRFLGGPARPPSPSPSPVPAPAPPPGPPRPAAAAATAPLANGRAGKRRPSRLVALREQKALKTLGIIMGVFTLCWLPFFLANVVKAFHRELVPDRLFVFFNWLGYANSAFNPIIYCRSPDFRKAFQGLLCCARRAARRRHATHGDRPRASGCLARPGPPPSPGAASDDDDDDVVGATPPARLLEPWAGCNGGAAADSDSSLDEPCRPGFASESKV
5HT5A serotonergic receptor, sequence (P47898 whole entry): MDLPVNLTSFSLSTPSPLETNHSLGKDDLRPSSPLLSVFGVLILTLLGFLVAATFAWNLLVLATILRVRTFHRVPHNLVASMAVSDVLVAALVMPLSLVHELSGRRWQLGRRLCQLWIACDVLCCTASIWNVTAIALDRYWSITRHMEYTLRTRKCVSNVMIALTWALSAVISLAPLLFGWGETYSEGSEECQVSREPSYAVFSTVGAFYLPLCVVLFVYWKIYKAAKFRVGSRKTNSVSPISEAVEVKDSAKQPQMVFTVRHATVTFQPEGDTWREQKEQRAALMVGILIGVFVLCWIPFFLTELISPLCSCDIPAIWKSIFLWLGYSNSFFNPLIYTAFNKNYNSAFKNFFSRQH

SMILES	Ki [2]	Ki (α2C adrenergic receptor)	% inhibition at 10 µM (GABAA receptor)	inhibition at 10 µM ([6]; single concentration 10 µM)	inhibition at 10 µM ([1]; single concentration 10 µM)	inhibition at 10 µM (β1 adrenergic receptor; single concentration 10 µM)	inhibition at 10 µM ([2]; single concentration 10 µM)	inhibition at 10 µM (α2C adrenergic receptor; single concentration 10 µM)	Ki [3]	inhibition at 10 µM ([3]; single concentration 10 µM)	inhibition at 10 µM ([4]; single concentration 10 µM)	inhibition at 10 µM (α1D adrenergic receptor; single concentration 10 µM)	inhibition at 10 µM ([5]; single concentration 10 µM)	inhibition at 10 µM ([7]; single concentration 10 µM)	inhibition at 10 µM (α1A adrenergic receptor; single concentration 10 µM)	inhibition at 10 µM (δ opioid receptor; single concentration 10 µM)	also measured
CNC(=O)[C@@]12C[C@@H]1[C@@H](n1cnc3c(NCc4cccc(Cl)c4)nc(C#Cc4ccc(F)c(F)c4)nc31)[C@H](O)[C@@H]2O [Compound 1]	2580 ± 220 nM	2.04 ± 0.95 µM	0%	5%	–	–	–	–	–	–	–	–	–	–	–	–	inhibition at 10 µM [1]: 3%; inhibition at 10 µM (β1 adrenergic receptor): 0%; inhibition at 10 µM [2]: 34%; inhibition at 10 µM (α2C adrenergic receptor): 63%; inhibition at 10 µM [3]: 71%; inhibition at 10 µM [4]: 5%; inhibition at 10 µM (α1D adrenergic receptor): 3%; inhibition at 10 µM [5]: 9%; inhibition at 10 µM [7]: 12%; inhibition at 10 µM (α1A adrenergic receptor): 10%; Ki (δ opioid receptor): 2.44 ± 1.54 µM; inhibition at 10 µM (δ opioid receptor): 44%
CNC(=O)[C@@]12C[C@@H]1[C@@H](n1cnc3c(NCc4cccc(Cl)c4)nc(C#Cc4ccc(F)cc4)nc31)[C@H](O)[C@@H]2O [Compound 2]	2130 ± 270 nM	3.64 ± 1.37 µM	0%	19%	25%	0%	56%	48%	253 ± 57 nM	92%	6%	6%	12%	0%	7%	24%	Ki (δ opioid receptor): 6.62 ± 1.7 µM
CNC(=O)[C@@]12C[C@@H]1[C@@H](n1cnc3c(NCc4cccc(Cl)c4)nc(C#Cc4ccccc4Cl)nc31)[C@H](O)[C@@H]2O [Compound 3]	3650 ± 1050 nM	1.81 ± 0.25 µM	0%	26%	29%	2%	55%	57%	344 ± 149 nM	87%	8%	20%	0%	0%	16%	31%	Ki [1]: 6.3 µM
CNC(=O)[C@@]12C[C@@H]1[C@@H](n1cnc3c(NCc4cccc(Cl)c4)nc(Cl)nc31)[C@H](O)[C@@H]2O [Compound 4]	75 ± 7 nM	–	0%	34%	21%	0%	95%	11%	–	32%	40 ± 7%	0%	0%	0%	3%	10%	Ki [4]: 7.73 µM
CNC(=O)[C@@]12C[C@@H]1[C@@H](n1cnc3c(NC)nc(C#Cc4ccc(F)c(F)c4)nc31)[C@H](O)[C@@H]2O [Compound 5]	–	–	0%	–	5%	9%	–	13%	–	25%	0%	0%	0%	9%	0%	9%	inhibition at 10 µM [2]: 4%; inhibition at 10 µM [6]: 11%
O[C@@H]1[C@H](O)[C@@H]2C[C@@H]2[C@H]1n1cnc2c(NCc3cccc(Cl)c3)nc(C#Cc3ccc(F)c(F)c3)nc21 [Compound 6]	–	5.4 ± 1.22 µM	–	6%	15%	6%	34%	11%	1700 nM	63%	0%	5%	3%	0%	13%	11%	–
O[C@@H]1[C@H](O)[C@@H]2C[C@@H]2[C@H]1n1cnc2c(NCc3cccc(Cl)c3)ncnc21 [Compound 7]	2220 ± 650 nM	5.36 ± 1.25 µM	0%	7%	16%	0%	75%	51%	–	13%	35 ± 2%	30%	24%	0%	15%	7%	Ki [4]: 3.92 µM
